Experiments:
Conditions in all cases: synthetic library passage 3, intravenous, relative to wild-type AAV9
[1] = tested on: brain; assay: NGS fold enrichment of synthetic library (passage 3) in BALB/c mice, first cross-species screen; type: in vivo
In short: (§1)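 Passage-3 synthetic capsid library given intravenously […] to NHPs (2-4 years) and BALB/c or C57Bl/6 mice (n=3, 6-8 weeks). After e.g. 28 days, tissue RNA was RT-PCR amplified and NGS-sequenced; values are fold enrichment of each variant relative to wild-type AAV9.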

[2] = tested on: brain; assay: NGS fold enrichment of synthetic library (passage 3) in C57Bl/6 mice, first cross-species screen; type: in vivo
In short: as §1

[3] = tested on: brain, spinal cord, and DRG of the NHPs; assay: NGS fold enrichment of synthetic library (passage 3) in NHPs, first cross-species screen; type: in vivo, cynomolgus macaques (Macaca fascicularis)
In short: as §1

[4] = RNA from brain of BALB/c mice, NGS
[5] = RNA from brain of C57Bl/6 mice, NGS
[6] = RNA from spinal cord of NHPs, NGS

Sequence	Fold enrichment over AAV9 in the brain of Mice (BALB/c) ([1]; RNA NGS, brain of BALB/c mice) [fold]	Fold enrichment over AAV9 in the brain of Mice (C57Bl/6) ([2]; RNA NGS, brain of C57Bl/6 mice) [fold]	Fold enrichment over AAV9 in the brain of NHPs ([3]; RNA NGS, brain of NHPs) [fold]	Fold enrichment over AAV9 in the spinal cord of NHPs ([3]; RNA NGS, spinal cord of NHPs) [fold]	Fold enrichment over AAV9 in the brain of Mice (BALB/c) [1, 4] [fold]	Fold enrichment over AAV9 in the brain of Mice (C57Bl/6) [2, 5] [fold]	Fold enrichment over AAV9 in the brain of NHPs ([3]; RNA from brain of NHPs, NGS) [fold]	Fold enrichment over AAV9 in the spinal cord of NHPs [3, 6] [fold]
GSGHTNPTRQNQQT	0.807	0.726	1.021	0.688				
GSGHVPNSGLNQQT	1.154	1.636	2.091	0.653				
GSGIAAQRTQNQQT	0.754	1.062	1.665	2.691				
GSGIGSHIPQNQQT					0.597	0.822	1.319	0.173
GSGIIPVSSQNQQT	0.253	0.642	6.352	0.000				
GSGIPAPRLQNQQT					0.396	0.583	1.273	4.162
GSGIPQRSGKNQQT	1.685	1.418	3.331	0.000				
GSGIPSVKFQNQQT					0.561	0.364	1.281	0.061
GSGIQSSYSQNQQT	0.684	1.032	1.517	15.978				
GSGISSRNMQNQQT					0.560	1.671	1.291	6.328
GSGIVTKLGQNQQT					0.242	0.599	1.174	10.571
GSGKGHSAGQNQQT	1.173	1.035	1.453	0.936				
GSGKNQQRPGLDQT	0.385	0.583	1.089	1.557				
GSGKNQTPIPKGQT					1.154	1.306	1.339	5.077
GSGKVTKQSQNQQT	1.035	0.928	1.095	0.000				
GSGLAHLGGQNQQT	0.794	0.749	1.064	2.191				
GSGLALERSQNQQT					0.096	0.618	1.311	0.486
GSGLDYSQRQNQQT	0.217	0.484	2.056	0.837				
GSGLGMSTGQNQQT	0.660	0.458	3.110	5.499				
GSGLGRAPVQNQQT	0.383	0.841	2.503	2.214				

Sequence	Fold enrichment over AAV9 in the brain of Mice (BALB/c) ([1]; RNA NGS, brain of BALB/c mice) [fold]	Fold enrichment over AAV9 in the brain of Mice (C57Bl/6) ([2]; RNA NGS, brain of C57Bl/6 mice) [fold]	Fold enrichment over AAV9 in the brain of NHPs ([3]; RNA NGS, brain of NHPs) [fold]	Fold enrichment over AAV9 in the spinal cord of NHPs ([3]; RNA NGS, spinal cord of NHPs) [fold]	Fold enrichment over AAV9 in the brain of Mice (BALB/c) [1, 4] [fold]	Fold enrichment over AAV9 in the brain of Mice (C57Bl/6) [2, 5] [fold]	Fold enrichment over AAV9 in the brain of NHPs ([3]; RNA from brain of NHPs, NGS) [fold]	Fold enrichment over AAV9 in the spinal cord of NHPs [3, 6] [fold]
GSGLIRTAAQNQQT	0.998	0.808	1.822	8.339				
GSGLKPNVLQNQQT					0.268	0.701	1.263	0.975
GSGLKWSTLQNQQT	2.442	1.134	1.556	0.000				
GSGLLHGKLQNQQT	0.917	1.068	2.032	2.521				
GSGLLHRAQQNQQT	0.646	1.583	1.569	0.724				
GSGLLPLSSQNQQT	0.293	0.501	2.612	1.130				
GSGLLYHDQQNQQT	0.107	0.405	1.565	2.760				
GSGLPDRNLQNQQT	0.611	1.136	1.471	7.306				
GSGLPVLSGQNQQT	0.210	0.631	3.100	4.149				
GSGLRQTSQQNQQT	0.705	0.978	1.537	2.067				
GSGLRTMTTQNQQT	0.594	0.838	1.900	8.939				
GSGLSGITMQNQQT	0.496	0.862	1.792	14.796				
GSGLSHATQQNQQT	0.638	1.111	2.640	7.819				
GSGLSHSHQQNQQT	0.592	1.256	2.109	5.852				
GSGLSVHLAQNQQT	0.508	0.806	2.657	1.234				
GSGLSVQSGQNQQT	1.005	1.695	2.637	2.929				
GSGLTLSATQNQQT	0.340	0.708	1.901	0.193				
GSGMIHTTAQNQQT					0.276	0.678	1.285	0.105
GSGMIIASMQNQQT	0.415	1.135	1.469	6.722				
GSGMLTHTLQNQQT	0.199	0.496	2.246	2.272				

— patent publication US20260250318A1, “COMPOSITIONS AND METHODS FOR CROSSING THE BLOOD BRAIN BARRIER” (VOYAGER THERAPEUTICS, INC., priority 2022, published 2026)
